Source: ChEMBL document CHEMBL6121044, “Discovery of Novel Spirocyclic MAT2A Inhibitors Demonstrating High In Vivo Efficacy in MTAP-Null Xenograft Models” (J Med Chem, 2025)
In brackets after ≈: the same amount, converted by molar mass.

What was measured:
[1] = Cmax in beagle dog at 10 mg/kg, po measured upto 24 hrs upto 24 hrs by LC-MS/MS analysis; assay type: ADME, organism-based, Canis lupus familiaris; details: in vivo
[2] = Volume of distribution at steady state in beagle dog at 2 mg/kg, iv measured upto 24 hrs upto 24 hrs by LC-MS/MS analysis; assay type: ADME, organism-based, Canis lupus familiaris; details: in vivo, read-out: Vdss
[3] = Half life in male ICR mouse at 10 mg/kg, po and 2 mg/kg, iv measured upto 24 hrs; assay type: ADME, organism-based; details: in vivo
[4] = Solubility of the compound in pH 7.4 phosphate buffer; assay type: physicochemical
[5] = Hepatic metabolic stability in mouse hepatocyte assessed as half life; assay type: ADME, cell-based; details: hepatocytes
[6] = AUCinf in beagle dog at 10 mg/kg, po measured upto 24 hrs upto 24 hrs by LC-MS/MS analysis; assay type: ADME, organism-based, Canis lupus familiaris; details: in vivo
HCT-116 [7] = test: Antiproliferative activity against MTAP-knock out human HCT-116 cells assessed as proliferation inhibition rate measured after 5 days by CTG assay; assay type: functional, cell-based; details: HCT-116, 120 h
[8] = AUCinf in male Sprague-Dawley rat at 10 mg/kg, po measured upto 24 hrs upto 24 hrs by LC-MS/MS analysis; assay type: ADME, organism-based; details: in vivo
[9] = Plasma protein binding in mouse assessed as unbound fraction; assay type: ADME, cell-free
Cytochrome P450 1A2 = molecular target: T1, Cytochrome P450 1A2 (Homo sapiens, UniProt P05177); test: Inhibition of CYP1A2 (unknown origin); assay type: ADME
T1 sequence (P05177 whole entry): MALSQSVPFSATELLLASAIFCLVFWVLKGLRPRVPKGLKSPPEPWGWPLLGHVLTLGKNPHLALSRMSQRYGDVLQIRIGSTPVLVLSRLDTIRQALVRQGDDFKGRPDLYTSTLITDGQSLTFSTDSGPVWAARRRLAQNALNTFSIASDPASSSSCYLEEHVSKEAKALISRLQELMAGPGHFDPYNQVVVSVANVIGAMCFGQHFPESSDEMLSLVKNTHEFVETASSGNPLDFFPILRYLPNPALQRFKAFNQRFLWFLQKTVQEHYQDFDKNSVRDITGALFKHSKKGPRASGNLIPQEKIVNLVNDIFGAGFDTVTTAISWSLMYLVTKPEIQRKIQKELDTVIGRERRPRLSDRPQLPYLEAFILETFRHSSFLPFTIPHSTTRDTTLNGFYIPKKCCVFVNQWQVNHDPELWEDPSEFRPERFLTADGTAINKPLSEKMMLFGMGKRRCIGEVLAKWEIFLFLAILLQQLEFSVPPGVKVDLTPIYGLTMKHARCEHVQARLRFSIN

[10] = Cmax in male Sprague-Dawley rat at 10 mg/kg, po measured upto 24 hrs upto 24 hrs by LC-MS/MS analysis; assay type: ADME, organism-based; details: in vivo
[11] = Hepatic metabolic stability in human hepatocyte assessed as half life; assay type: ADME, cell-based; details: hepatocytes
Cytochrome P450 3A4 = Cytochrome P450 3A4 (Homo sapiens, UniProt P08684); test: Inhibition of CYP3A4 (unknown origin); assay type: ADME
Cytochrome P450 3A4, sequence (P08684 whole entry): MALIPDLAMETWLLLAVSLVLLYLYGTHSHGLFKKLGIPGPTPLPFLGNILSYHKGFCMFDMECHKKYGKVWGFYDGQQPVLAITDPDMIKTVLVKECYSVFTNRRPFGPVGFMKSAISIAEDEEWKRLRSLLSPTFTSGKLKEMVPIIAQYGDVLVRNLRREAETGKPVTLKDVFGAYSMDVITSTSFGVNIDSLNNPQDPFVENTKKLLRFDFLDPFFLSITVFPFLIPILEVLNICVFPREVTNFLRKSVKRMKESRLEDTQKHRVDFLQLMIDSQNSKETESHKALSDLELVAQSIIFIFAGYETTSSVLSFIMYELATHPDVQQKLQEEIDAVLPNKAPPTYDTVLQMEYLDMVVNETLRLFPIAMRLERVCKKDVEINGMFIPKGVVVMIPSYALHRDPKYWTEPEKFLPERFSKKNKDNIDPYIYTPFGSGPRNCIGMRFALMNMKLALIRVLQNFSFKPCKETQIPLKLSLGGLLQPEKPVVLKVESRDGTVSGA

Cytochrome P450 2C19 = Cytochrome P450 2C19 (Homo sapiens, UniProt P33261); test: Inhibition of CYP2C19 (unknown origin); assay type: ADME
Cytochrome P450 2C19, sequence (P33261 whole entry): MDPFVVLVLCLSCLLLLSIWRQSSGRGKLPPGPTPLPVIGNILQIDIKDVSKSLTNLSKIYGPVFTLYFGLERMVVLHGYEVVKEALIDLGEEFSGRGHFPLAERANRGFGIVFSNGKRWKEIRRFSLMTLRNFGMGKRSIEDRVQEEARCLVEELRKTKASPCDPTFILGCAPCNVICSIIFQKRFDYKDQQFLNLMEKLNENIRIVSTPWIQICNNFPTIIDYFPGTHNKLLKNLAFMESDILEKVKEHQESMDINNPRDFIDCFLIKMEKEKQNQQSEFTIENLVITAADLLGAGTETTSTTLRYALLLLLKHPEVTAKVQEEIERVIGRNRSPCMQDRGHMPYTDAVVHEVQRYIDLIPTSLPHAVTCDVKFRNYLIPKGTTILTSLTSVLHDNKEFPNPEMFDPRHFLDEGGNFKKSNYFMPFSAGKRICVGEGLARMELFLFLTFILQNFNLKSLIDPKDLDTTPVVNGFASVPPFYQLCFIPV

[12] = Solubility of the compound in FaSSIF; assay type: physicochemical
[13] = Microsomal metabolic stability in Cynomolgus monkey liver microsomes assessed as half life; assay type: ADME, Macaca fascicularis, Microsome
Cytochrome P450 2D6 = Cytochrome P450 2D6 (Homo sapiens, UniProt P10635); test: Inhibition of CYP2D6 (unknown origin); assay type: ADME
Cytochrome P450 2D6, sequence (P10635 whole entry): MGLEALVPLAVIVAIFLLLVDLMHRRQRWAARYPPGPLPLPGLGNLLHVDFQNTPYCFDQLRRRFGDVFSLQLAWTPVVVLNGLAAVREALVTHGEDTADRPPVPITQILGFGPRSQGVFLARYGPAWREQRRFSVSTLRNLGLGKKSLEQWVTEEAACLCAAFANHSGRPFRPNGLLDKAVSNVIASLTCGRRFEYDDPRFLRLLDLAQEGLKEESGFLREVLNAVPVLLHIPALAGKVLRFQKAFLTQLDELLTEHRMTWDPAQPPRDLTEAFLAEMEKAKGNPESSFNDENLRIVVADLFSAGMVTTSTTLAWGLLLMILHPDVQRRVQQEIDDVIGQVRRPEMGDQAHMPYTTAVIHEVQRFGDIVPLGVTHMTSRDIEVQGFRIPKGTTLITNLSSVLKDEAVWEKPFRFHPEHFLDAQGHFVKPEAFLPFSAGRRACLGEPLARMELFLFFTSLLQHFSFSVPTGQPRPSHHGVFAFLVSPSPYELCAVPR

[14] = Cmax in male ICR mouse at 10 mg/kg, po measured upto 24 hrs by LC-MS/MS analysis; assay type: ADME, organism-based; details: in vivo
[15] = AUCinf in beagle dog at 2 mg/kg, iv measured upto 24 hrs upto 24 hrs by LC-MS/MS analysis; assay type: ADME, organism-based, Canis lupus familiaris; details: in vivo
[16] = Genotoxicity in Salmonella typhimurium TA100; assay type: toxicity; details: salmonella enterica subsp. enterica serovar typhimurium
[17] = Genotoxicity in Salmonella typhimurium TA102; assay type: toxicity; details: salmonella enterica subsp. enterica serovar typhimurium
[18] = Genotoxicity in Salmonella typhimurium TA97a; assay type: toxicity; details: salmonella enterica subsp. enterica serovar typhimurium
[19] = AUCinf in male ICR mouse at 10 mg/kg, po measured upto 24 hrs by LC-MS/MS analysis; assay type: ADME, organism-based; details: in vivo
[20] = Genotoxicity in Salmonella typhimurium TA98; assay type: toxicity; details: salmonella enterica subsp. enterica serovar typhimurium
[21] = AUCinf in male ICR mouse at 2 mg/kg, iv measured upto 24 hrs by LC-MS/MS analysis; assay type: ADME, organism-based; details: in vivo
[22] = Half life in beagle dog at 10 mg/kg, po measured upto 24 hrs upto 24 hrs by LC-MS/MS analysis; assay type: ADME, organism-based, Canis lupus familiaris; details: in vivo
[23] = Clearance in male ICR mouse at 10 mg/kg, po and 2 mg/kg, iv measured upto 24 hrs; assay type: ADME, organism-based; details: in vivo
[24] = molecular target: S-adenosylmethionine synthase isoform type-2 (Homo sapiens, UniProt P31153); test: Inhibition of MAT2A in wild type human HCT-116 cells assessed as inhibition of S-adenosylmethionine; assay type: cell-based
S-adenosylmethionine synthase isoform type-2, sequence (P31153 whole entry, canonical isoform): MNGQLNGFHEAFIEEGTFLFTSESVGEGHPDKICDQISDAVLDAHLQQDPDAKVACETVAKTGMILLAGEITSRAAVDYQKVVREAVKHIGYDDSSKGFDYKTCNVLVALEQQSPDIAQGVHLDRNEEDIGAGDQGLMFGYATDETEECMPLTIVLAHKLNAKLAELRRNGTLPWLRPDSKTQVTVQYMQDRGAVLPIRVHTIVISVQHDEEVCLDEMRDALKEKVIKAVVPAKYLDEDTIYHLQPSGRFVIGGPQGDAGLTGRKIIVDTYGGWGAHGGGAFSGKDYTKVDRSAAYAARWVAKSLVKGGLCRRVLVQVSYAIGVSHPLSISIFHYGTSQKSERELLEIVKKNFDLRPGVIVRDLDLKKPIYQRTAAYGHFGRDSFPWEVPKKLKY

[25] = Dissociation constant, pKa of compound; assay type: physicochemical
[26] = Plasma protein binding in human assessed as unbound fraction; assay type: ADME, cell-free
[27] = Half life in male ICR mouse at 2 mg/kg, iv measured upto 24 hrs by LC-MS/MS analysis; assay type: ADME, organism-based; details: in vivo
[28] = Plasma protein binding in rat assessed as unbound fraction; assay type: ADME, cell-free
[29] = Volume of distribution at steady state in male ICR mouse at 10 mg/kg, po and 2 mg/kg, iv measured upto 24 hrs; assay type: ADME, organism-based; details: in vivo
[30] = Selectivity index, ratio of IC50 for antiproliferative activity against wild type human HCT-116 cells to IC50 for antiproliferative activity against MTAP-knock out human HCT-116 cells
HCT-116 [31] = test: Antiproliferative activity against wild type human HCT-116 cells measured after 5 days by CTG assay; assay type: functional, cell-based; details: HCT-116, 120 h
Cytochrome P450 2C8 = molecular target: T2, Cytochrome P450 2C8 (Homo sapiens, UniProt P10632); test: Inhibition of CYP2C8 (unknown origin); assay type: ADME
T2 sequence (P10632 whole entry): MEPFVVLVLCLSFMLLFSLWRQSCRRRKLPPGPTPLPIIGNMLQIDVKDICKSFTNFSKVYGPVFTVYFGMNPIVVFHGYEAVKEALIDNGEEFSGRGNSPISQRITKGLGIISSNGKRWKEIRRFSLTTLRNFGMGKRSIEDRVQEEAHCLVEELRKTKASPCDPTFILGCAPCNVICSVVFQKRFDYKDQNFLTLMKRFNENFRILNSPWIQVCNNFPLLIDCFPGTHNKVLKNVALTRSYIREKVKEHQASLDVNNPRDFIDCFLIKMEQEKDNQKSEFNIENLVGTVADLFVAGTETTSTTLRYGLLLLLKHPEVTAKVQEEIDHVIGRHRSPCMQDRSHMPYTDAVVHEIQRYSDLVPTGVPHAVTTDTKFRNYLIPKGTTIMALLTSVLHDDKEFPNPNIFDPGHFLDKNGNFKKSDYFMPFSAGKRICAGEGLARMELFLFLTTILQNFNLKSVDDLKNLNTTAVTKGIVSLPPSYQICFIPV

[32] = Lipophilicity, log P of the compound; assay type: physicochemical; details: octanol/water
[33] = Hepatic metabolic stability in rat hepatocyte assessed as half life; assay type: ADME, cell-based; details: hepatocytes
[34] = Apparent permeability across apical to basolateral in human Caco-2 cells; assay type: ADME, cell-based; details: read-out: permeability

Cmax [1] [ng/mL] | Vd [2] [L/kg] | half-life [3] [min] | solubility [4] [µM] | half-life [5] [min] | AUC(0-inf) [6] [ng·h/mL] | IC50 (HCT-116 [7]) [nM] | AUC(0-inf) [8] [ng·h/mL] | fraction unbound [9] | IC50 (Cytochrome P450 1A2) [µM] | Cmax [10] [ng/mL] | half-life [11] [min] | IC50 (Cytochrome P450 3A4) [µM] | IC50 (Cytochrome P450 2C19) [µM] | solubility [12] [µM] | half-life [13] [min] | IC50 (Cytochrome P450 2D6) [µM] | Cmax [14] [ng/mL] | AUC(0-inf) [15] [ng·h/mL] | Structure (SMILES) | Activity [16] | further results
2140 | 1.14 | 134 | 174 (≈ 59.9 µg/mL) | > 217 | 12300 | 47 | 14500 | 0.345 | > 10 | 6100 | > 217 | > 10 | > 10 | 208 (≈ 71.6 µg/mL) | > 186 | > 10 | 5820 | 1860 | [2H]C([2H])([2H])NC1=NC(=O)[C@]2(CCc3ncccc32)c2cc(C(C)(F)F)ccc21 | Non-toxic | Activity [17]: Non-toxic; Activity [18]: Non-toxic; AUC(0-inf) [19]: 24900 ng·h/mL; Activity [20]: Non-toxic; AUC(0-inf) [21]: 3660 ng·h/mL; half-life [22]: 268 min; clearance [23]: 9.12 mL/min/kg; IC50 [24]: 2 nM; pKa [25]: 4.9; fraction unbound [26]: 0.676; half-life [27]: 116 min; fraction unbound [28]: 0.373; Vdss [29]: 1.53 L/kg; Selectivity Index [30]: >181; IC50 (HCT-116 [31]): > 10000 nM; IC50 (Cytochrome P450 2C8): > 10 µM; logP [32]: 1.65; half-life [33]: > 217 min; Papp A→B [34]: 5.12 ×10⁻⁶ cm/s
1660 | 1.14 | 130 | 173 (≈ 60.3 µg/mL) | > 217 | 13600 | 58 | 24300 | 0.276 | > 10 | 8520 | > 217 | > 10 | > 10 | 207 (≈ 72.1 µg/mL) | > 186 | > 10 | 5420 | 2610 | [2H]C([2H])([2H])NC1=NC(=O)[C@]2(CCc3ncccc32)c2cc(C(F)(F)F)ccc21 | Non-toxic | Activity [17]: Non-toxic; Activity [18]: Non-toxic; AUC(0-inf) [19]: 35800 ng·h/mL; Activity [20]: Non-toxic; AUC(0-inf) [21]: 4190 ng·h/mL; half-life [22]: 365 min; clearance [23]: 7.98 mL/min/kg; IC50 [24]: 3 nM; pKa [25]: 4.7; fraction unbound [26]: 0.758; half-life [27]: 151 min; fraction unbound [28]: 0.412; Vdss [29]: 1.7 L/kg; Selectivity Index [30]: 20; IC50 (HCT-116 [31]): 680 nM; IC50 (Cytochrome P450 2C8): > 10 µM; logP [32]: 1.85; half-life [33]: > 217 min; Papp A→B [34]: 13.6 ×10⁻⁶ cm/s
